Measured values published in patent US9617260B2, “Inhibitors of bruton's tyrosine kinase” (Hoffmann-La Roche Inc., priority 2013, dated 2017).

Molecular target: Bruton's Tyrosine Kinase (BTK), inactivated state (Homo sapiens (Human), UniProt Q06187)
Test: Bruton's Tyrosine Kinase (BTK) Inhibition TR-FRET (Time Resolved FRET) competition assay
Type: binding
Conditions: competition with Kinase Tracer 178 for BTK-Eu; plates incubated 18-24 h at 14° C.
Protocol: Bruton's Tyrosine Kinase (BTK) Inhibition TR-FRET (Time Resolved FRET) Assay
This BTK competition assay measures compound potency (IC50) for the inactivated state of Bruton's Tyrosine Kinase using FRET (Förster/Fluoresence Resonance Energy Transfer) technology. The BTK-Eu complex was incubated on ice one hour prior to use at a starting concentration of 50 nM BTK-Bioease™: 10 nM Eu-streptavidin (Perkin-Elmer Catalog #AD0062). The assay buffer consisted of 20 mM HEPES (pH 7.15), 0.1 mM DTT, 10 mM MgCl2, 0.5 mg/ml BSA with 3% Kinase Stabilizer (Fremont Biosolutions, Catalog #STB-K02). After 1 h, the reaction mixture from above was diluted 10 fold in assay buffer to make 5 nM BTK: 1 nM Eu-Streptavidin complex (donor fluorophore). 18 μl of a mixture of 0.11 nM BTK-Eu and 0.11 nM Kinase Tracer 178 (Invitrogen, Catalog #PV5593,) with BTK-Eu alone as no negative control, was then dispensed into 384-well flat bottom plates (Greiner, 784076). Compounds to be tested in assay were prepared as 10× concentrations and serial dilution in half-log increments was performed in DMSO so as to generate 10 point curves. To initiate the FRET reaction, compounds prepared as 10× stock in DMSO was added to the plates and the plates were incubated 18-24 h at 14° C.
After the incubation the plates were read on a BMG Pherastar Fluorescent plate reader (or equivalent) and used to measure the emission energy from the europium donor fluorophore (620 nm emission) and the FRET (665 nm emission). The negative control well values were averaged to obtain the mean minimum. The positive “no inhibitor” control wells were averaged to obtain the mean maximum. Percent of maximal FRET was calculated using following equation: % max FRET=100×[(FSRcmpd−FSRmean min)/(FSRmean max−FSRmean min)]
where FSR=FRET Signal ratio. % Max FRET curves were plotted in Activity Base (Excel) and the IC50 (%), hill slope, z′ and % CV were determined The mean IC50 and standard deviation will be derived from duplicate curves (singlet inhibition curves from two independent dilutions) using Microsoft Excel.
Representative compound data for this assay are listed below in Table II.

Bruton's Tyrosine Kinase (BTK), inactivated state, sequence (Q06187 whole entry): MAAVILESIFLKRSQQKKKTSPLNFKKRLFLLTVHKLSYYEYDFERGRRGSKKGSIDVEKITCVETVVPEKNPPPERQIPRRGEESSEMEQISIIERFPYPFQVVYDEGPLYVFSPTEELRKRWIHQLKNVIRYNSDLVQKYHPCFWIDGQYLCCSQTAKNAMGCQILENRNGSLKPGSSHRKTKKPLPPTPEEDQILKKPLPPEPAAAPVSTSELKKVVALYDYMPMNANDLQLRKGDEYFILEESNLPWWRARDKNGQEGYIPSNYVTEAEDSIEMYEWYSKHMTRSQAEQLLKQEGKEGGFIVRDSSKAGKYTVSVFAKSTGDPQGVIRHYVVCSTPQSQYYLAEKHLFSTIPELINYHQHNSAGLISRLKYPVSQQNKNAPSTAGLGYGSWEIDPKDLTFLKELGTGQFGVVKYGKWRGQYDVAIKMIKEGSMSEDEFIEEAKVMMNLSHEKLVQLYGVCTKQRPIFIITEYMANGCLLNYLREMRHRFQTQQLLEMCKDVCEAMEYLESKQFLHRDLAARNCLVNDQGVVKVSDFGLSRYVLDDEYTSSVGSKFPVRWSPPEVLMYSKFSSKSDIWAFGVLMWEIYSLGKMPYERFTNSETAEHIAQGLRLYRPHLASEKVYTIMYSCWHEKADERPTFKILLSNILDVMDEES

Compound | IC50
CCC(=O)C(=O)Nc1cccc(-c2c[nH]c3ncc(NC(=O)OCc4ccccc4)cc23)c1 [Compound 4, benzyl N-[3-[3-(2-oxobutanoylamino)phenyl]-1H-pyrrolo[2,3-b]pyridin-5-yl]carbamate] | 8 nM
C=CC(=O)N1CCC(c2c[nH]c3ncc(NC(=O)OCc4ccccc4)cc23)CC1 [Compound 31, benzyl N-[3-(1-prop-2-enoylpiperidin-4-yl)-1H-pyrrolo[2,3-b]pyridin-5-yl]carbamate] | 0.6 nM
CC(=O)C(=O)Nc1cccc(-c2c[nH]c3ncc(NC(=O)OCc4cccc(F)c4)cc23)c1 [Compound 17, (3-fluorophenyl)methyl N-[3-[3-(2-oxopropanoylamino)phenyl]-1H-pyrrolo[2,3-b]pyridin-5-yl]carbamate] | 43.7 nM
CCC(=O)C(=O)Nc1cccc(-c2c[nH]c3ncc(NC(=O)OC(C)C)cc23)c1 [Compound 8, propan-2-yl N-[3-[3-(2-oxobutanoylamino)phenyl]-1H-pyrrolo[2,3-b]pyridin-5-yl]carbamate] | 49 nM
C=CC(=O)N(C)c1cccc(-c2c[nH]c3ncc(NC(=O)OC(C)C)cc23)c1 [Compound 6, propan-2-yl N-[3-[3-[methyl(prop-2-enoyl)amino]phenyl]-1H-pyrrolo[2,3-b]pyridin-5-yl]carbamate] | 24 nM
C=C(C(=O)Nc1cccc(-c2c[nH]c3ncc(NC(=O)OCc4ccccc4)cc23)c1)C(F)(F)F [Compound 9, benzyl N-[3-[3-[2-(trifluoromethyl)prop-2-enoylamino]phenyl]-1H-pyrrolo[2,3-b]pyridin-5-yl]carbamate] | 72 nM
CCC(=O)C(=O)N1CC=C(c2c[nH]c3ncc(NC(=O)OCc4ccccc4)cc23)CC1 [Compound 27, benzyl N-[3-[1-(2-oxobutanoyl)-3,6-dihydro-2H-pyridin-4-yl]-1H-pyrrolo[2,3-b]pyridin-5-yl]carbamate] | 291 nM
CCC(C)C(=O)C(=O)Nc1cccc(-c2c[nH]c3ncc(NC(=O)OCc4ccccc4)cc23)c1 (stereo not drawn) [Compound 11, benzyl N-[3-[3-[(3-methyl-2-oxopentanoyl)amino]phenyl]-1H-pyrrolo[2,3-b]pyridin-5-yl]carbamate] | 206 nM
CC(=O)C(=O)Nc1cccc(-c2c[nH]c3ncc(NC(=O)OCc4cccc(C#N)c4)cc23)c1 [Compound 20, (3-cyanophenyl)methyl N-[3-[3-(2-oxopropanoylamino)phenyl]-1H-pyrrolo[2,3-b]pyridin-5-yl]carbamate] | 137 nM
CC(=O)C(=O)N1CC=C(c2c[nH]c3ncc(NC(=O)OCc4ccccc4Cl)cc23)CC1 [Compound 24, (2-chlorophenyl)methyl N-[3-[1-(2-oxopropanoyl)-3,6-dihydro-2H-pyridin-4-yl]-1H-pyrrolo[2,3-b]pyridin-5-yl]carbamate] | 165 nM
C=C(C(=O)Nc1cccc(-c2c[nH]c3ncc(NC(=O)OCc4cccc(F)c4)cc23)c1)C(F)(F)F [Compound 18, (3-fluorophenyl)methyl N-[3-[3-[2-(trifluoromethyl)prop-2-enoylamino]phenyl]-1H-pyrrolo[2,3-b]pyridin-5-yl]carbamate] | 123 nM
CC(C)OC(=O)Nc1cnc2[nH]cc(-c3cccc(NC(=O)CC#N)c3)c2c1 [Compound 22, propan-2-yl N-[3-[3-[(2-cyanoacetyl)amino]phenyl]-1H-pyrrolo[2,3-b]pyridin-5-yl]carbamate] | 620 nM
CC(=O)C(=O)Nc1cccc(-c2c[nH]c3ncc(NC(=O)OCc4ccccc4Cl)cc23)c1 [Compound 14, (2-chlorophenyl)methyl N-[3-[3-(2-oxopropanoylamino)phenyl]-1H-pyrrolo[2,3-b]pyridin-5-yl]carbamate] | 30 nM
CC(=O)C(=O)N1CC=C(c2c[nH]c3ncc(NC(=O)OCc4cccc(F)c4)cc23)CC1 [Compound 28, (3-fluorophenyl)methyl N-[3-[1-(2-oxopropanoyl)-3,6-dihydro-2H-pyridin-4-yl]-1H-pyrrolo[2,3-b]pyridin-5-yl]carbamate] | 210 nM
CC(C)OC(=O)Nc1cnc2[nH]cc(-c3cccc(NC(=O)/C=C/CN(C)C)c3)c2c1 [Compound 5, propan-2-yl N-[3-[3-[[(E)-4-(dimethylamino)but-2-enoyl]amino]phenyl]-1H-pyrrolo[2,3-b]pyridin-5-yl]carbamate] | 13 nM
CCC(=O)C(=O)N1CC=C(c2c[nH]c3ncc(NC(=O)OCc4cccc(F)c4)cc23)CC1 [Compound 26, (3-fluorophenyl)methyl N-[3-[1-(2-oxobutanoyl)-3,6-dihydro-2H-pyridin-4-yl]-1H-pyrrolo[2,3-b]pyridin-5-yl]carbamate] | 384 nM
CN(C)C/C=C/C(=O)Nc1ccccc1-c1c[nH]c2ncc(NC(=O)OCc3ccccc3)cc12 [Compound 23, benzyl N-[3-[2-[[(E)-4-(dimethylamino)but-2-enoyl]amino]phenyl]-1H-pyrrolo[2,3-b]pyridin-5-yl]carbamate] | 331 nM
CCC(=O)C(=O)Nc1cccc(-c2c[nH]c3ncc(NC(=O)OCc4cccc(C#N)c4)cc23)c1 [Compound 19, (3-cyanophenyl)methyl N-[3-[3-(2-oxobutanoylamino)phenyl]-1H-pyrrolo[2,3-b]pyridin-5-yl]carbamate] | 114 nM
CC(C)(C)C(=O)C(=O)Nc1cccc(-c2c[nH]c3ncc(NC(=O)OCc4ccccc4)cc23)c1 [Compound 10, benzyl N-[3-[3-[(3,3-dimethyl-2-oxobutanoyl)amino]phenyl]-1H-pyrrolo[2,3-b]pyridin-5-yl]carbamate] | 100 nM
C=CC(=O)N1C=C(c2c[nH]c3ncc(NC(=O)OCc4ccccc4)cc23)CCC1 [Compound 33, benzyl N-[3-(1-prop-2-enoyl-3,4-dihydro-2H-pyridin-5-yl)-1H-pyrrolo[2,3-b]pyridin-5-yl]carbamate] | 0.6 nM
C=CC(=O)N1CC=C(c2c[nH]c3ncc(NC(=O)OCc4ccccc4)cc23)CC1 [Compound 30, benzyl N-[3-(1-prop-2-enoyl-3,6-dihydro-2H-pyridin-4-yl)-1H-pyrrolo[2,3-b]pyridin-5-yl]carbamate] | 1.2 nM
CCC(=O)C(=O)N1CC=C(c2c[nH]c3ncc(NC(=O)OCc4ccccc4Cl)cc23)CC1 [Compound 25, (2-chlorophenyl)methyl N-[3-[1-(2-oxobutanoyl)-3,6-dihydro-2H-pyridin-4-yl]-1H-pyrrolo[2,3-b]pyridin-5-yl]carbamate] | 404 nM
C=CC(=O)Nc1cccc(-c2c[nH]c3ncc(NC(=O)OCc4ccccc4)cc23)c1 [Compound 2, benzyl N-[3-[3-(prop-2-enoylamino)phenyl]-1H-pyrrolo[2,3-b]pyridin-5-yl]carbamate] | 0.3 nM
C=CC(=O)N1CC(O)(c2c[nH]c3ncc(NC(=O)OCc4ccccc4)cc23)C1 [Compound 34, benzyl N-[3-(3-hydroxy-1-prop-2-enoylazetidin-3-yl)-1H-pyrrolo[2,3-b]pyridin-5-yl]carbamate] | 3.6 nM
C=CC(=O)N1CCC(c2c[nH]c3ncc(NC(=O)OC(C)C)cc23)CC1 [Compound 32, propan-2-yl N-[3-(1-prop-2-enoylpiperidin-4-yl)-1H-pyrrolo[2,3-b]pyridin-5-yl]carbamate] | 27 nM
CCC(=O)C(=O)Nc1cccc(-c2c[nH]c3ncc(NC(=O)OCc4ccccc4Cl)cc23)c1 [Compound 15, (2-chlorophenyl)methyl N-[3-[3-(2-oxobutanoylamino)phenyl]-1H-pyrrolo[2,3-b]pyridin-5-yl]carbamate] | 60 nM
CN(C)C/C=C/C(=O)Nc1cccc(-c2c[nH]c3ncc(NC(=O)OCc4ccccc4)cc23)c1 [Compound 1, benzyl N-[3-[3-[[(E)-4-(dimethylamino)but-2-enoyl]amino]phenyl]-1H-pyrrolo[2,3-b]pyridin-5-yl]carbamate] | 7 nM
COCCC(=O)N(C)c1cccc(-c2c[nH]c3ncc(NC(=O)OC(C)C)cc23)c1 [Compound 7, propan-2-yl N-[3-[3-[3-methoxypropanoyl(methyl)amino]phenyl]-1H-pyrrolo[2,3-b]pyridin-5-yl]carbamate] | 880 nM
CC(C)CC(=O)C(=O)Nc1cccc(-c2c[nH]c3ncc(NC(=O)OCc4ccccc4)cc23)c1 [Compound 12, benzyl N-[3-[3-[(4-methyl-2-oxopentanoyl)amino]phenyl]-1H-pyrrolo[2,3-b]pyridin-5-yl]carbamate] | 285 nM
CCC(=O)C(=O)Nc1cccc(-c2c[nH]c3ncc(NC(=O)OCc4cccc(F)c4)cc23)c1 [Compound 16, (3-fluorophenyl)methyl N-[3-[3-(2-oxobutanoylamino)phenyl]-1H-pyrrolo[2,3-b]pyridin-5-yl]carbamate] | 42 nM
